Activity calls are given as the source filed them. The calls are words filed in the database; no cut-off is given here.
Key:
Ramos = assay: Growth inhibition of human Ramos cells assessed as inhibition of cell growth measured after 72 hrs by resazurin dye based assay; type: functional
K562 = assay: Growth inhibition of human K562 cells assessed as inhibition of cell growth measured after 72 hrs by resazurin dye based assay; type: functional
Rec1 = assay: Growth inhibition of human REC1 cells assessed as inhibition of cell growth measured after 72 hrs by resazurin dye based assay; type: functional
[1] = Growth inhibition of human patient derived UPF1H cells assessed as inhibition of cell growth measured after 72 hrs by resazurin dye based assay; type: functional
[2] = Growth inhibition of human patient derived UPF7U cells assessed as inhibition of cell growth measured after 72 hrs by resazurin dye based assay; type: functional
[3] = target: Mitogen-activated protein kinase; ERK1/ERK2 (Homo sapiens) (UniProt P27361+P28482); assay: Inhibition of ERK1/2 in human Ramos cells assessed as reduction in ERK1/2 phosphorylation at 1 to 5 uM measured after 24 hrs by western blot assay; type: cell-based; settings: dose 1-5 µM
[4] = target: T1, Tyrosine-protein kinase BTK (Homo sapiens, UniProt Q06187); assay: Inhibition of human BTK using poly (Glu,Tyr) as substrate in presence of ATP and Ci(gamma33-P) ATP measured by microplate reader assay
[5] = target: T1, Tyrosine-protein kinase BTK; assay: Inhibition of human BTK assessed as residual activity using poly (Glu,Tyr) as substrate in presence of ATP and Ci(gamma33-P) ATP at 1 uM measured by microplate reader assay
[6] = target: Cyclin-dependent kinase 2 (Homo sapiens) (UniProt P24941); assay: Inhibition of GST-tagged CDK2/cyclinE (unknown origin) expressed in Sf9 cells assessed as residual activity using histone H1 as substrate in presence of ATP and Ci(gamma33-P) ATP at 1 uM measured by microplate reader assay
[7] = target: Tyrosine-protein kinase SYK (Homo sapiens) (UniProt P43405); assay: Inhibition of human recombinant GST-tagged SYK (M1 to N635 residues) assessed as residual activity using poly (Glu,Tyr) as substrate in presence of ATP and Ci(gamma33-P) ATP at 1 uM measured by microplate reader assay
[8] = target: Tyrosine-protein kinase Fyn (Homo sapiens) (UniProt P06241); assay: Inhibition of human recombinant full length GST-tagged FYN (M1 to L537 residues) assessed as residual activity using poly (Glu,Tyr) as substrate in presence of ATP and Ci(gamma33-P) ATP at 1 uM measured by microplate reader assay
[9] = target: Receptor-type tyrosine-protein kinase FLT3 (Homo sapiens) (UniProt P36888); assay: Inhibition of human recombinant […] N-terminal GST-tagged FLT3 (R571 to S993 residues) assessed as residual activity using poly (Ala, Glu, Lys, Tyr) hydrobromide as substrate in presence of ATP and Ci(gamma33-P) ATP at 1 uM measured by microplate reader assay
[10] = target: Tyrosine-protein kinase ABL1 (Homo sapiens) (UniProt P00519); assay: Inhibition of Abl (unknown origin) expressed in Sf9 cells assessed as residual activity using GGEAIYAAPFKK peptide as substrate in presence of ATP and Ci(gamma33-P)ATP at 1 uM measured by microplate reader
[11] = target: T1, Tyrosine-protein kinase BTK; assay: Inhibition of BTK in human Ramos cells assessed as reduction of IgM stimulated BTK ([…]) phosphorylation at 1 to 5 uM measured after 24 hrs by western blot assay; type: cell-based; settings: dose 1-5 µM
[12] = target: T1, Tyrosine-protein kinase BTK; assay: Inhibition of BTK in human Ramos cells assessed as reduction of IgM stimulated PLCgamma2 (Y1217) phosphorylation at 1 to 5 uM measured after 24 hrs by western blot assay; type: cell-based; settings: dose 1-5 µM

Tyrosine-protein kinase ABL1 (Homo sapiens), sequence (P00519 whole entry): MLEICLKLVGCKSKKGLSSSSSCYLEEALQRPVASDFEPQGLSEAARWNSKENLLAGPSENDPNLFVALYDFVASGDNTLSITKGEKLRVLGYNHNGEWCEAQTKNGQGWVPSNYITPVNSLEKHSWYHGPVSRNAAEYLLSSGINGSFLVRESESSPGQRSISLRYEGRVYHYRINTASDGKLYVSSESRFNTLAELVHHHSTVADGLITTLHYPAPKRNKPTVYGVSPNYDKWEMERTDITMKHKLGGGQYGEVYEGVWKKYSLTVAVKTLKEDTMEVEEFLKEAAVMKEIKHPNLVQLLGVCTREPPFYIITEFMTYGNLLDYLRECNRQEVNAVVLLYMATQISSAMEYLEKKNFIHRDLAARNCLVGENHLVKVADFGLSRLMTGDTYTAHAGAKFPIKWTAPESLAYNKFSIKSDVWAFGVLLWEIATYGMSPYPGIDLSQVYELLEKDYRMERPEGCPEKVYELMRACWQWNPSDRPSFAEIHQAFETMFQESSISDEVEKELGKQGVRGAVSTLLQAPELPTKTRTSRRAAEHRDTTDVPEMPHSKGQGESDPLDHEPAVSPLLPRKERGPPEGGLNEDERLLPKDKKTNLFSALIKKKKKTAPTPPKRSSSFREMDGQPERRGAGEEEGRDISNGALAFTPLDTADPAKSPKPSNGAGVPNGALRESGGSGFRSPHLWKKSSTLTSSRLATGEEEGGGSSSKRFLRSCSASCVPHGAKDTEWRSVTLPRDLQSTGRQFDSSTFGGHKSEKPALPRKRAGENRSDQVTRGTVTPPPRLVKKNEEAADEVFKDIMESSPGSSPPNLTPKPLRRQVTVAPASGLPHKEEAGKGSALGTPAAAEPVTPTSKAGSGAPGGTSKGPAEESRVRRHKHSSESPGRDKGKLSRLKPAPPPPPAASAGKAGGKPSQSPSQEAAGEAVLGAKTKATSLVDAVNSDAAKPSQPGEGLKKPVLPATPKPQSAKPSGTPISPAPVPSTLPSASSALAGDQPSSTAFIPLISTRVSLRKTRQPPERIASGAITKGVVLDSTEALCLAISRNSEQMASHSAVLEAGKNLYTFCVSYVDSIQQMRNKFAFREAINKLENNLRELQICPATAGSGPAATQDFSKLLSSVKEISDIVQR
T1 sequence (Q06187 whole entry): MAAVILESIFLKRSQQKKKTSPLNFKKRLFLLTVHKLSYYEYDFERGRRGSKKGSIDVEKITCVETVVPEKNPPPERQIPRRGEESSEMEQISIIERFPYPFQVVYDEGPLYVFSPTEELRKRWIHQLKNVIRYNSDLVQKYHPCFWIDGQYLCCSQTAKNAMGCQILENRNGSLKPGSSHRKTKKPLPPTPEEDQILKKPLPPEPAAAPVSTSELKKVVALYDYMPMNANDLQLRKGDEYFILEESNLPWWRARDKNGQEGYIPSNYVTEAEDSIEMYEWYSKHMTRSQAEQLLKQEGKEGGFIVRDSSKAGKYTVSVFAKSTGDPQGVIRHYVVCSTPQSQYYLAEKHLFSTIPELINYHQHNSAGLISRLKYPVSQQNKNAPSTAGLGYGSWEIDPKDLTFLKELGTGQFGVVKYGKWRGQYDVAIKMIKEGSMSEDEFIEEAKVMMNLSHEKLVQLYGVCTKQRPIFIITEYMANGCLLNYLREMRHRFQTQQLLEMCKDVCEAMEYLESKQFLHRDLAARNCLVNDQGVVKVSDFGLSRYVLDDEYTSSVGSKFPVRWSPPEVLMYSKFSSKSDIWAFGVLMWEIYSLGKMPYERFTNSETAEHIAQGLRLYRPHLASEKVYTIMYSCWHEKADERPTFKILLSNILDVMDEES
Mitogen-activated protein kinase; ERK1/ERK2 (Homo sapiens), sequence (P27361 whole entry, looked up): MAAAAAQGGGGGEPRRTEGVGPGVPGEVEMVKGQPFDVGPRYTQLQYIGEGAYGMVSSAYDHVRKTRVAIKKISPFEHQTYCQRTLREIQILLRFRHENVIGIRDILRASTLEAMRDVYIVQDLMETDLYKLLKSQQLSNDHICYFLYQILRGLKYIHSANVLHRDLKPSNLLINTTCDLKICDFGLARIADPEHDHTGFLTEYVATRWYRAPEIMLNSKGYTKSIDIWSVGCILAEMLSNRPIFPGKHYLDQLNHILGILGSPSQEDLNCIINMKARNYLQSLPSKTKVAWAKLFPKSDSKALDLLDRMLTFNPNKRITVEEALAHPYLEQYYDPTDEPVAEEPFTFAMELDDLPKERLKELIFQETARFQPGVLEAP
Mitogen-activated protein kinase; ERK1/ERK2 (Homo sapiens), sequence (P28482 whole entry, looked up): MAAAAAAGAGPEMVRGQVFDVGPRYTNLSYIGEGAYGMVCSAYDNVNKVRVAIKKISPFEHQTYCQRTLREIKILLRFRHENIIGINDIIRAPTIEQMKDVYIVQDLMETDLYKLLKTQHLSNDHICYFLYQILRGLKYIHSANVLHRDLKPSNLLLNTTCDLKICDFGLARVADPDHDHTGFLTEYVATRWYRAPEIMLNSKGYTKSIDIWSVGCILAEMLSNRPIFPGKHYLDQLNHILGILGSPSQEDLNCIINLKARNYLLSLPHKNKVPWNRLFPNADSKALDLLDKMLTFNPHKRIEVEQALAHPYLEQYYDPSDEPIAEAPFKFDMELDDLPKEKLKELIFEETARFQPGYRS
Receptor-type tyrosine-protein kinase FLT3 (Homo sapiens), sequence (P36888 whole entry, the tested form may be a part): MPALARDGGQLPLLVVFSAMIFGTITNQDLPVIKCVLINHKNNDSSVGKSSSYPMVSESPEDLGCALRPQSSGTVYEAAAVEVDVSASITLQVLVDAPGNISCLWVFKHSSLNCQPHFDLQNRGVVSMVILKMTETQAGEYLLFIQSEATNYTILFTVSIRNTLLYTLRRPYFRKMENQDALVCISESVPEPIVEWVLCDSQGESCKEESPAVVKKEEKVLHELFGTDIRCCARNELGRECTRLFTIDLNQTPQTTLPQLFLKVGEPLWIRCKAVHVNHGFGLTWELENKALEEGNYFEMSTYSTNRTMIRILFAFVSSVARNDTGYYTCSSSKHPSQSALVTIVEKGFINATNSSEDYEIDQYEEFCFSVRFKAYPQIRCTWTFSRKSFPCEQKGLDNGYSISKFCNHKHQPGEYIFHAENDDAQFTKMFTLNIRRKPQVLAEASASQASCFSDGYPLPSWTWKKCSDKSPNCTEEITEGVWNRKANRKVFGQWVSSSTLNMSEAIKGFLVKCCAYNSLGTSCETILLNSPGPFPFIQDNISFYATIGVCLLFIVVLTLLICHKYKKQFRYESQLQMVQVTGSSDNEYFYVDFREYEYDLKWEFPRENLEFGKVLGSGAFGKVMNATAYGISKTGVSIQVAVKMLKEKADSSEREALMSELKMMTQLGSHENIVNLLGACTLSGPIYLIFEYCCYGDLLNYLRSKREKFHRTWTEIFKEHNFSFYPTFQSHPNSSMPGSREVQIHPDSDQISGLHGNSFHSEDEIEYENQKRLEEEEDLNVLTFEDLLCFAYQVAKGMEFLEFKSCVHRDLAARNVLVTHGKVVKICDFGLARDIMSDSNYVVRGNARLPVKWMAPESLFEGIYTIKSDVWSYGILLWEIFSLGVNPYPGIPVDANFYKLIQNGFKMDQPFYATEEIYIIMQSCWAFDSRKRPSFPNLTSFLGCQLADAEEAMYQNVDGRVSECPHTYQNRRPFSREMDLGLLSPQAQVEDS
Tyrosine-protein kinase Fyn (Homo sapiens), sequence (P06241 2-537 limits assumed): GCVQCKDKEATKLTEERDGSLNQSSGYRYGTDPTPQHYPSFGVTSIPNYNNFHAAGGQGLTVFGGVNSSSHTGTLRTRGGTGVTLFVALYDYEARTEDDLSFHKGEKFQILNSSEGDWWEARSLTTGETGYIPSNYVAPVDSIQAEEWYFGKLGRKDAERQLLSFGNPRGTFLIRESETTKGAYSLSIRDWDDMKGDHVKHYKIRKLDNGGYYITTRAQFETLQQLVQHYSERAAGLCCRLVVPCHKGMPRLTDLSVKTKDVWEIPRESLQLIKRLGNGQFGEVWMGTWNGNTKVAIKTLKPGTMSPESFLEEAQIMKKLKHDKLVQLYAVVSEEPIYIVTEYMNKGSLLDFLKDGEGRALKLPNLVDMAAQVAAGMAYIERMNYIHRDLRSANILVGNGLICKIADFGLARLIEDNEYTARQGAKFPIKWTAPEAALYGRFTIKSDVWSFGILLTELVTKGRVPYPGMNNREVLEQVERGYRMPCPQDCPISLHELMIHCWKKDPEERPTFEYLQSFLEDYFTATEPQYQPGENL

Compound | GI50 (Ramos; Homo sapiens, Ramos) | GI50 (K562; Homo sapiens, K562) | GI50 (Rec1; Homo sapiens, Rec1) | GI50 ([1]; Homo sapiens, UPF1H) | GI50 ([2]; Homo sapiens, UPF7U) | inhibition [3] | IC50 [4] | Activity [5] | Activity [6] | Activity [7] | Activity [8] | Activity [9] | Activity [10] | inhibition [11] | inhibition [12] | GI50 (Ramos) | GI50 (K562) | GI50 (Rec1) | GI50 [1] | GI50 [2]
Cc1cccc(-c2cc3[nH]cnc3c(Nc3ccc(C(=O)N4CCOCC4)cc3)n2)c1C | 45.8 µM | > 50 µM | 42 µM | > 50 µM | > 50 µM | inactive |  |  |  |  |  |  |  |  |  |  |  |  |  | 
Cc1c(NC(=O)c2nc3ccccc3[nH]2)cccc1-c1cc2[nH]cnc2c(Nc2ccc(C(=O)N3CCOCC3)cc2)n1 | 10.1 µM | 10 µM | > 12.5 µM | > 12.5 µM | > 12.5 µM |  | 0.035 µM | 20.9% | 97.9% | 92% | 64.7% | 53.9% | 78% | Active | Active |  |  |  |  | 
Cc1c(NC(=O)c2ccccn2)cccc1-c1cc2[nH]cnc2c(Nc2ccc(C(=O)N3CCOCC3)cc2)n1 | > 12.5 µM | > 12.5 µM | > 12.5 µM | > 12.5 µM | > 12.5 µM |  | 0.166 µM | 27.4% | 93.7% | 72.5% | 78.8% | > 100% | 56.8% |  |  |  |  |  |  | 
Cc1c(NC(=O)c2ccc(C(C)(C)C)cc2)cccc1-c1cc2c(ncn2C)c(Nc2ccc(C(=O)N3CCOCC3)cc2)n1 | 12.2 µM | 57.3 µM | 17.7 µM | 25.6 µM | 35.6 µM |  | 0.527 µM | 39.7% | 95.6% | 74.3% | 68.8% | > 100% | > 100% |  |  |  |  |  |  | 
CC(=O)Nc1cccc(-c2cc3[nH]cnc3c(Nc3ccc(C(=O)N4CCOCC4)cc3)n2)c1C | > 50 µM | > 50 µM | > 50 µM | 35.1 µM | > 50 µM |  | 0.545 µM | 38.8% | 94.5% | 61.7% | 84% | 95% | 52.4% |  |  |  |  |  |  | 
Cc1c(NC(=O)c2cccc(C(C)(C)C)c2)cccc1-c1cc2[nH]cnc2c(Nc2ccc(C(=O)N3CCOCC3)cc2)n1 | 18.6 µM | 60.1 µM | 64 µM | 40.3 µM | > 50 µM |  | 0.709 µM | 43.3% | 95.3% | 74.1% | 81% | 64.9% | > 100% |  |  |  |  |  |  | 
Cc1c(NC(=O)c2c[nH]cn2)cccc1-c1cc2[nH]cnc2c(Nc2ccc(C(=O)N3CCOCC3)cc2)n1 | > 50 µM | > 50 µM | > 50 µM | > 25 µM | > 50 µM |  | 0.079 µM | 27.2% | 94.6% | 76.5% | 36.6% | 68.3% | 80.8% |  |  |  |  |  |  | 
Cc1c(NC(=O)c2ccccc2)cccc1-c1cc2[nH]cnc2c(Nc2ccc(C(=O)N3CCOCC3)cc2)n1 | > 16.6 µM | > 16.6 µM | > 16.6 µM | > 50 µM | > 50 µM |  | 0.155 µM | 20.1% | 85.2% | 71.3% | 65.3% | 47% | 68.2% |  |  |  |  |  |  | 
Cc1c(NC(=O)C2CCCCC2)cccc1-c1cc2[nH]cnc2c(Nc2ccc(C(=O)N3CCOCC3)cc2)n1 | 47.2 µM | 49 µM | > 50 µM | 44.1 µM | > 50 µM | inactive | 0.932 µM | 61.5% | 93% | 43.3% | 95.1% | 75.7% |  | Active | Active |  |  |  |  | 
Cc1c(NC(=O)c2cccnc2)cccc1-c1cc2[nH]cnc2c(Nc2ccc(C(=O)N3CCOCC3)cc2)n1 | > 50 µM | > 50 µM | > 50 µM | > 50 µM | > 50 µM | inactive | 0.264 µM | 25.3% | 89% | 62.3% | 75.2% | 76.2% | 69.1% | Active | Active |  |  |  |  | 
Cc1c(NC(=O)c2ncc[nH]2)cccc1-c1cc2[nH]cnc2c(Nc2ccc(C(=O)N3CCOCC3)cc2)n1 | > 25 µM | > 25 µM | > 25 µM | > 12.5 µM | > 25 µM |  | 0.041 µM | 24.2% | 93.6% | 66% | 56.3% | 33.3% | 39.4% |  |  |  |  |  |  | 
COc1ccc(Cn2cnc3c(Nc4ccc(C(=O)N5CCOCC5)cc4)nc(-c4cccc(NC(=O)c5ccc(C(C)(C)C)cc5)c4C)cc32)cc1 | > 50 µM | > 50 µM | > 50 µM | > 50 µM | > 50 µM |  | > 10 µM | 71.2% | 96.7% | 82.3% | 73.9% | 42.7% | 95.1% |  |  |  |  |  |  | 
C=CC(=O)N1CCC[C@H](n2nc(-c3ccc(Oc4ccccc4)cc3)c3c(N)ncnc32)C1 |  |  |  |  |  |  |  |  | 69.8% | 77.3% | 57.5% | 60.3% | 62.8% |  |  | > 4 µM | > 4 µM | 3.3 µM | > 4 µM | > 4 µM
Cc1cccc(-c2cc(Nc3ccc(C(=O)N4CCOCC4)cc3)c3nc[nH]c3n2)c1C | > 50 µM | > 50 µM | > 50 µM | > 50 µM | > 50 µM |  |  |  |  |  |  |  |  |  |  |  |  |  |  | 
